Test results as given in PubChem BioAssay AID2060610 (Molecular Pharmacology Branch, DTP, NCI, 2025).
One block for each compound: values may come before it.

Test system: 616215-338-R-J1-PDC complex spheroids, viability % test/control
Assay: Anticancer human tumor 616215-338-R-J1-PDC patient-derived colon adenocarcinoma cell line growth inhibition [CLK]
Settings: for IC50: curve of first compound; for viability, T/C: stronger effect = lower value
Outline: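 Patient-derived tumor cells grown as complex spheroids with HUVEC endothelial cells and mesenchymal stem cells, treated with drug combinations. Concentrations descend in half-log steps from near clinical Cmax, or from 10 microM if Cmax unknown.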

[1] = second compound 0.0316 µM, first compound 0.0316 µM
[2] = second compound 0.0316 µM, first compound 0.1 µM
[3] = second compound 0.0316 µM, first compound 0.316 µM
[4] = second compound 0.0316 µM, first compound 1 µM
[5] = second compound 0.0316 µM, first compound 3.16 µM
[6] = second compound 0.0316 µM, first compound 10 µM
[7] = second compound 0.1 µM, first compound 0.0316 µM
[8] = second compound 0.1 µM, first compound 0.1 µM
[9] = second compound 0.1 µM, first compound 0.316 µM
[10] = second compound 0.1 µM, first compound 1 µM
[11] = second compound 0.1 µM, first compound 3.16 µM
[12] = second compound 0.1 µM, first compound 10 µM
[13] = second compound 0.316 µM, first compound 0.0316 µM
[14] = second compound 0.316 µM, first compound 0.1 µM
[15] = second compound 0.316 µM, first compound 0.316 µM
[16] = second compound 0.316 µM, first compound 1 µM
[17] = second compound 0.316 µM, first compound 3.16 µM
[18] = second compound 0.316 µM, first compound 10 µM
[19] = second compound 1 µM, first compound 0.0316 µM
[20] = second compound 1 µM, first compound 0.1 µM
[21] = second compound 1 µM, first compound 0.316 µM
[22] = second compound 1 µM, first compound 1 µM
[23] = second compound 1 µM, first compound 3.16 µM
[24] = second compound 1 µM, first compound 10 µM
[25] = second compound 3.16 µM, first compound 0.0316 µM
[26] = second compound 3.16 µM, first compound 0.1 µM
[27] = second compound 3.16 µM, first compound 0.316 µM
[28] = second compound 3.16 µM, first compound 1 µM
[29] = second compound 3.16 µM, first compound 3.16 µM
[30] = second compound 3.16 µM, first compound 10 µM
[31] = second compound 10 µM, first compound 0.0316 µM
[32] = second compound 10 µM, first compound 0.1 µM
[33] = second compound 10 µM, first compound 0.316 µM
[34] = second compound 10 µM, first compound 1 µM
[35] = second compound 10 µM, first compound 3.16 µM
[36] = second compound 10 µM, first compound 10 µM
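Also: spheroids exposed to agents for 7 days.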
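For viability, T/C in this document: 100% = DMSO vehicle wells.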

SMILES: COC1C=CCC(C)C(C)S(=O)(=O)NC(=O)c2ccc3c(c2)N(CC2CCC21)CC1(CCCc2cc(Cl)ccc21)CO3 (stereo not given) + CN1CCN(c2cc(C(=O)Nc3cc4cc(-c5cnn(C)c5)ccc4cn3)ccn2)CC1
- IC50 (second compound 0.0316 µM): 2360 nM
- IC50 (second compound 0.1 µM): 2870 nM
- IC50 (second compound 0.316 µM): < 31.6 nM
- IC50 (second compound 1 µM): < 31.6 nM
- IC50 (second compound 3.16 µM): < 31.6 nM
- IC50 (second compound 10 µM): < 31.6 nM
- viability, T/C [1]: 45.7%
- viability, T/C [2]: 32.5%
- viability, T/C [3]: 111%
- viability, T/C [4]: 106%
- viability, T/C [5]: 41.9%
- viability, T/C [6]: 0.01%
- viability, T/C [7]: 41.4%
- viability, T/C [8]: 44.4%
- viability, T/C [9]: 122%
- viability, T/C [10]: 116%
- viability, T/C [11]: 47.2%
- viability, T/C [12]: 0.01%
- viability, T/C [13]: 9.08%
- viability, T/C [14]: 9.53%
- viability, T/C [15]: 21.3%
- viability, T/C [16]: 28.6%
- viability, T/C [17]: 20%
- viability, T/C [18]: 0.01%
- viability, T/C [19]: 0.68%
- viability, T/C [20]: 0.08%
- viability, T/C [21]: 0.17%
- viability, T/C [22]: 0.14%
- viability, T/C [23]: 0.94%
- viability, T/C [24]: 0.01%
- viability, T/C [25]: 0.04%
- viability, T/C [26]: 0.07%
- viability, T/C [27]: 0.18%
- viability, T/C [28]: 0.16%
- viability, T/C [29]: 0.18%
- viability, T/C [30]: 0.01%
- viability, T/C [31]: 0.08%
- viability, T/C [32]: 0.09%
- viability, T/C [33]: 0.24%
- viability, T/C [34]: 0.27%
- viability, T/C [35]: 0.33%
- viability, T/C [36]: 0.01%

- IC50 (second compound 0.0316 µM): 13.5 nM
- IC50 (second compound 0.1 µM): 7.31 nM
- IC50 (second compound 0.316 µM): < 3.16 nM
- IC50 (second compound 1 µM): 3.52 nM
- IC50 (second compound 3.16 µM): < 3.16 nM
- IC50 (second compound 10 µM): < 3.16 nM
SMILES: CCc1c2c(nc3ccc(O)cc13)-c1cc3c(c(=O)n1C2)COC(=O)[C@]3(O)CC + CNC(=O)c1ccc(Nc2nc(OC3CCCC3)c3c(-c4ccc5nc(C)oc5c4)c[nH]c3n2)c(OC)c1
- viability, T/C (second compound 0.0316 µM, first compound 0.00316 µM): 111%
- viability, T/C (second compound 0.0316 µM, first compound 0.01 µM): 51.1%
- viability, T/C [1]: 35.8%
- viability, T/C [2]: 25.6%
- viability, T/C [3]: 14.6%
- viability, T/C [4]: 9.31%
- viability, T/C (second compound 0.1 µM, first compound 0.00316 µM): 56.9%
- viability, T/C (second compound 0.1 µM, first compound 0.01 µM): 51.3%
- viability, T/C [7]: 27.3%
- viability, T/C [8]: 21.5%
- viability, T/C [9]: 14.6%
- viability, T/C [10]: 5.13%
- viability, T/C (second compound 0.316 µM, first compound 0.00316 µM): 37.9%
- viability, T/C (second compound 0.316 µM, first compound 0.01 µM): 38.9%
- viability, T/C [13]: 24.8%
- viability, T/C [14]: 20.2%
- viability, T/C [15]: 14.6%
- viability, T/C [16]: 1.77%
- viability, T/C (second compound 1 µM, first compound 0.00316 µM): 53.5%
- viability, T/C (second compound 1 µM, first compound 0.01 µM): 28.5%
- viability, T/C [19]: 18.4%
- viability, T/C [20]: 17.2%
- viability, T/C [21]: 11.8%
- viability, T/C [22]: 1.4%
- viability, T/C (second compound 3.16 µM, first compound 0.00316 µM): 37%
- viability, T/C (second compound 3.16 µM, first compound 0.01 µM): 27.3%
- viability, T/C [25]: 17.1%
- viability, T/C [26]: 14.9%
- viability, T/C [27]: 11.8%
- viability, T/C [28]: 2.58%
- viability, T/C (second compound 10 µM, first compound 0.00316 µM): 40.6%
- viability, T/C (second compound 10 µM, first compound 0.01 µM): 25.2%
- viability, T/C [31]: 18.5%
- viability, T/C [32]: 17.3%
- viability, T/C [33]: 11.6%
- viability, T/C [34]: 1.03%

SMILES: O=C(c1cc(Cc2n[nH]c(=O)c3ccccc23)ccc1F)N1CCN(C(=O)C2CC2)CC1 + CN1CCN(c2cc(C(=O)Nc3cc4cc(-c5cnn(C)c5)ccc4cn3)ccn2)CC1
- IC50 (second compound 0.0316 µM): > 10000 nM
- IC50 (second compound 0.1 µM): > 10000 nM
- IC50 (second compound 0.316 µM): < 31.6 nM
- IC50 (second compound 1 µM): < 31.6 nM
- IC50 (second compound 3.16 µM): < 31.6 nM
- IC50 (second compound 10 µM): < 31.6 nM
- viability, T/C [1]: 99.4%
- viability, T/C [2]: 113%
- viability, T/C [3]: 100%
- viability, T/C [4]: 96.6%
- viability, T/C [5]: 103%
- viability, T/C [6]: 67.3%
- viability, T/C [7]: 114%
- viability, T/C [8]: 110%
- viability, T/C [9]: 98.9%
- viability, T/C [10]: 107%
- viability, T/C [11]: 82.9%
- viability, T/C [12]: 55.4%
- viability, T/C [13]: 34.9%
- viability, T/C [14]: 44.1%
- viability, T/C [15]: 31.3%
- viability, T/C [16]: 40.5%
- viability, T/C [17]: 30.6%
- viability, T/C [18]: 29.3%
- viability, T/C [19]: 0.12%
- viability, T/C [20]: 0.17%
- viability, T/C [21]: 0.13%
- viability, T/C [22]: 0.1%
- viability, T/C [23]: 1.83%
- viability, T/C [24]: 0.09%
- viability, T/C [25]: 0.09%
- viability, T/C [26]: 0.15%
- viability, T/C [27]: 0.12%
- viability, T/C [28]: 0.1%
- viability, T/C [29]: 0.12%
- viability, T/C [30]: 0.19%
- viability, T/C [31]: 0.11%
- viability, T/C [32]: 0.14%
- viability, T/C [33]: 0.18%
- viability, T/C [34]: 0.13%
- viability, T/C [35]: 0.23%
- viability, T/C [36]: 1.83%

- IC50 (second compound 0.0316 µM): 328 nM
- IC50 (second compound 0.1 µM): 340 nM
- IC50 (second compound 0.316 µM): < 31.6 nM
- IC50 (second compound 1 µM): 494 nM
- IC50 (second compound 3.16 µM): 548 nM
- IC50 (second compound 10 µM): 533 nM
SMILES: COc1cccc2c1C(=O)c1c(O)c3c(c(O)c1C2=O)CC(O)(C(=O)CO)CC3OC1CC(N)C(O)C(C)O1 (stereo not given) + CNC(=O)c1ccc(Nc2nc(OC3CCCC3)c3c(-c4ccc5nc(C)oc5c4)c[nH]c3n2)c(OC)c1
- viability, T/C [1]: 111%
- viability, T/C [2]: 72.6%
- viability, T/C [3]: 54.1%
- viability, T/C [4]: 34.5%
- viability, T/C [5]: 1.22%
- viability, T/C [6]: 0.82%
- viability, T/C [7]: 53.8%
- viability, T/C [8]: 57.7%
- viability, T/C [9]: 42.7%
- viability, T/C [10]: 35.9%
- viability, T/C [11]: 0.57%
- viability, T/C [12]: 0.99%
- viability, T/C [13]: 55.7%
- viability, T/C [14]: 47.1%
- viability, T/C [15]: 46.8%
- viability, T/C [16]: 42.1%
- viability, T/C [17]: 0.32%
- viability, T/C [18]: 0.17%
- viability, T/C [19]: 49.7%
- viability, T/C [20]: 61.3%
- viability, T/C [21]: 75.6%
- viability, T/C [22]: 30.7%
- viability, T/C [23]: 0.2%
- viability, T/C [24]: 0.17%
- viability, T/C [25]: 61.8%
- viability, T/C [26]: 66.6%
- viability, T/C [27]: 81.3%
- viability, T/C [28]: 28.3%
- viability, T/C [29]: 0.16%
- viability, T/C [30]: 2.18%
- viability, T/C [31]: 58.2%
- viability, T/C [32]: 56%
- viability, T/C [33]: 79.7%
- viability, T/C [34]: 32.4%
- viability, T/C [35]: 0.24%
- viability, T/C [36]: 1.24%

SMILES: CCCS(=O)(=O)Nc1ccc(F)c(C(=O)c2c[nH]c3ncc(-c4ccc(Cl)cc4)cc23)c1F + CN1CCN(c2cc(C(=O)Nc3cc4cc(-c5cnn(C)c5)ccc4cn3)ccn2)CC1
- IC50 (second compound 0.0316 µM): 1510 nM
- IC50 (second compound 0.1 µM): 1690 nM
- IC50 (second compound 0.316 µM): < 31.6 nM
- IC50 (second compound 1 µM): < 31.6 nM
- IC50 (second compound 3.16 µM): < 31.6 nM
- IC50 (second compound 10 µM): < 31.6 nM
- viability, T/C [1]: 21.5%
- viability, T/C [2]: 34.8%
- viability, T/C [3]: 99.9%
- viability, T/C [4]: 98.2%
- viability, T/C [5]: 25.5%
- viability, T/C [6]: 0.01%
- viability, T/C [7]: 24.7%
- viability, T/C [8]: 36.4%
- viability, T/C [9]: 105%
- viability, T/C [10]: 105%
- viability, T/C [11]: 28.9%
- viability, T/C [12]: 0.01%
- viability, T/C [13]: 10.4%
- viability, T/C [14]: 12.8%
- viability, T/C [15]: 38.1%
- viability, T/C [16]: 29.9%
- viability, T/C [17]: 21%
- viability, T/C [18]: 0%
- viability, T/C [19]: 0.01%
- viability, T/C [20]: 0.08%
- viability, T/C [21]: 0.17%
- viability, T/C [22]: 1.99%
- viability, T/C [23]: 0.6%
- viability, T/C [24]: 0.01%
- viability, T/C [25]: 0.01%
- viability, T/C [26]: 0.06%
- viability, T/C [27]: 0.14%
- viability, T/C [28]: 0.13%
- viability, T/C [29]: 0.08%
- viability, T/C [30]: 0%
- viability, T/C [31]: 0.03%
- viability, T/C [32]: 0.07%
- viability, T/C [33]: 0.17%
- viability, T/C [34]: 0.19%
- viability, T/C [35]: 0.25%
- viability, T/C [36]: 0%
